For nine molecules, carcinogen call results are on record in PubChem BioAssay AID1259411 (Chemical Carcinogenesis Research Information System (CCRIS), 2018).

SMILES strings stand for the structures. Calls of active or inactive are those of the source. How the calls were made is not given here.

The series relates to rodent carcinogenicity bioassays, tumor incidence. In words: CCRIS carcinogenicity studies. The conditions noted are these: Dose: 0, Dose: 0. A digest of the protocol: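 Archive of carcinogenicity, mutagenicity, tumor promotion and tumor inhibition results drawn from journals, NCI reports and other sources, expert-reviewed; covers 1985-2011 and is no longer updated.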

In the case of `Nc1ccc(Cl)c(N)c1`, the carcinogen call (Species: MOUSE, Strain/Sex: B6C3F1/FEMALE, Route: ORAL, 0.7, 1.4% OF DIET, TWA, 0.7, 1.4% OF DIET, TWA, Tumor Site: Type of Lesion: LIVER: HEPATOCELLULAR ADENOMA OR HEPATOCELLULAR CARCINOMA) is “active; positive”; the carcinogen call (Species: MOUSE, Strain/Sex: B6C3F1/MALE, Route: ORAL, 0.7, 1.4% OF DIET, TWA, 0.7, 1.4% OF DIET, TWA) is “inactive; negative”; the carcinogen call (Species: RAT, Strain/Sex: F344/FEMALE, Route: ORAL, 0.2, 0.4% OF DIET, 0.2, 0.4% OF DIET) was “inactive; negative”; the carcinogen call (Species: RAT, Strain/Sex: F344/MALE, Route: ORAL, 0.2, 0.4% OF DIET, 0.2, 0.4% OF DIET, Tumor Site: Type of Lesion: ADRENAL GLAND: PHEOCHROMOCYTOMA) was “active; positive”.

On to `N[C@@H](CS)C(=O)O`, for which the carcinogen call reads like this: (Species: RAT, Strain/Sex: F344/FEMALE, Route: ORAL, 0.25, 0.5% IN DRINKING WATER FOR 108 WK (STUDY DURATION: 108 WK), 0.25, 0.5% IN DRINKING WATER FOR 108 WK (STUDY DURATION: 108 WK)) “inactive; negative”; (Species: RAT, Strain/Sex: F344/MALE, Route: ORAL, 0.25, 0.5% IN DRINKING WATER FOR 108 WK (STUDY DURATION: 108 WK), 0.25, 0.5% IN DRINKING WATER FOR 108 WK (STUDY DURATION: 108 WK)) “inactive; negative”.

`Nc1c(Cl)c(F)nc(OCC(=O)O)c1Cl`: the carcinogen call runs as follows: (Species: Mouse, Strain/Sex: CD-1/Female (60/Group), Route: Oral, 100, 500, 1000 mg/kg/day of 98.9% fluroxypyr in diet for 18 mo, study duration 18 mo, 100, 500, 1000 mg/kg/day of 98.9% fluroxypyr in diet for 18 mo, study duration 18 mo) “inactive; negative”; (Species: Mouse, Strain/Sex: CD-1/Male (60/Group), Route: Oral, 100, 500, 1000 mg/kg/day of 98.9% fluroxypyr in diet for 18 mo, study duration 18 mo, 100, 500, 1000 mg/kg/day of 98.9% fluroxypyr in diet for 18 mo, study duration 18 mo) “inactive; negative”; (Species: Rat, Strain/Sex: Fischer 344/Female (50/Group), Route: Oral, 100, 500, 1000 mg/kg/day of 99.0% fluroxypyr in diet for 2 yr, study duration 2 yr, 100, 500, 1000 mg/kg/day of 99.0% fluroxypyr in diet for 2 yr, study duration 2 yr) “inactive; negative”; (Species: Rat, Strain/Sex: Fischer 344/Male (50/Group), Route: Oral, 100, 500, 1000 mg/kg/day of 99.0% fluroxypyr in diet for 2 yr, study duration 2 yr, 100, 500, 1000 mg/kg/day of 99.0% fluroxypyr in diet for 2 yr, study duration 2 yr) “inactive; negative”.

With `O[C@@H]1C=Cc2c(ccc3cc4ccccc4nc23)[C@H]1O`, the carcinogen call by setting is: (Species: MOUSE, Strain/Sex: SWISS/FEMALE, Route: INTRAPERITONEAL, 1.05 UMOL GIVEN AS 150 NMOL IN 5 µL DMSO WITHIN 24 HR OF BIRTH, 300 NMOL IN 10 µL DMSO ON D 8 OF LIFE, AND 600 NMOL I, Tumor Site: Type of Lesion: LUNG: ADENOMA) “active; positive”; (Species: MOUSE, Strain/Sex: SWISS/MALE, Route: INTRAPERITONEAL, 1.05 UMOL GIVEN AS 150 NMOL IN 5 µL DMSO WITHIN 24 HR OF BIRTH, 300 NMOL IN 10 µL DMSO ON D 8 OF LIFE, AND 600 NMOL I, Tumor Site: Type of Lesion: LUNG: ADENOMA, LIVER: NEOPLASTIC NODULE) “active; positive”.

`O=[N+]([O-])c1ccc(Oc2ccc(Cl)cc2Cl)cc1`: the carcinogen call is “active; positive” (Species: MOUSE, Strain/Sex: B6C3F1/FEMALE, Route: ORAL, 2348, 4696 PPM IN DIET, TWA, 2348, 4696 PPM IN DIET, TWA, Tumor Site: Type of Lesion: LIVER: HEPATOCELLULAR CARCINOMA OR NEOPLASTIC NODULE); “active; positive” (Species: MOUSE, Strain/Sex: B6C3F1/FEMALE, Route: ORAL, 3000, 6000 PPM IN DIET, 3000, 6000 PPM IN DIET, Tumor Site: Type of Lesion: LIVER: HEPATOCELLULAR ADENOMA OR CARCINOMA); “active; positive” (Species: MOUSE, Strain/Sex: B6C3F1/MALE, Route: ORAL, 2348, 4696 PPM IN DIET, TWA, 2348, 4696 PPM IN DIET, TWA, Tumor Site: Type of Lesion: LIVER: HEPATOCELLULAR CARCINOMA); “active; positive” (Species: MOUSE, Strain/Sex: B6C3F1/MALE, Route: ORAL, 3000, 6000 PPM IN DIET, 3000, 6000 PPM IN DIET, Tumor Site: Type of Lesion: LIVER: HEPATOCELLULAR ADENOMA OR CARCINOMA); “inactive; negative” (Species: RAT, Strain/Sex: F344/FEMALE, Route: ORAL, 3000, 6000 PPM IN DIET, 3000, 6000 PPM IN DIET); “inactive; negative” (Species: RAT, Strain/Sex: F344/MALE, Route: ORAL, 3000, 6000 PPM IN DIET, 3000, 6000 PPM IN DIET). For the same molecule, the carcinogen call (Species: RAT, Strain/Sex: OSBORNE-MENDEL/FEMALE, Route: ORAL, 1300, 2600 PPM IN DIET, TWA, 1300, 2600 PPM IN DIET, TWA, Tumor Site: Type of Lesion: PANCREAS: CARCINOMA) was “active; positive”.

In the case of `CCSC(=O)N(CC)C1CCCCC1`, the carcinogen call runs as follows: (Species: Mouse, Strain/Sex: C57 BL/10JfCD-1/Alpk/Female (50/group), Route: Oral, 300, 1,000, 3,000 ppm of 98.1% pure cycloate in feed for 18 mo, 300, 1,000, 3,000 ppm of 98.1% pure cycloate in feed for 18 mo) “inactive; negative”; (Species: Mouse, Strain/Sex: C57 BL/10JfCD-1/Alpk/Male (50/group), Route: Oral, 300, 1,000, 3,000 ppm of 98.1% pure cycloate in feed for 18 mo, 300, 1,000, 3,000 ppm of 98.1% pure cycloate in feed for 18 mo) “inactive; negative”.

With `O=C([O-])CNCCNCC(=O)[O-].O=C([O-])CNCCNCC(=O)[O-].O=C([O-])CNCCNCC(=O)[O-].[Fe+3].[Fe+3]`, for the setting “Species: RAT, Strain/Sex: WISTAR/MALE, Route: INTRAPERITONEAL, 10 MG/KG BW 2/WK FOR 3 MO (STUDY DURATION: 1 YR), Tumor Site: Type of Lesion: KIDNEY: TUMOR”, the carcinogen call is “active; positive”.

As to `CCN(CC)C(=O)N(C)N=O`, the carcinogen call (Species: HAMSTER, Strain/Sex: SYRIAN/FEMALE, Route: SUBCUTANEOUS, 7.75, 14.15, 28.3, 56.6 MG/KG IN 0.1 ML OLIVE OIL 1/WK FOR 52 WK (STUDY DURATION: LIFESPAN), 7.75, 14.15, 28.3, 56.6 MG/KG IN 0.1 ML OLIVE OIL 1/WK FOR 52 WK (STUDY DURATION: LIFESPAN), Tumor Site: Type of Lesion: NASAL CAVITY: SQUAMOUS CELL CARCINOMA, SPLEEN: HEMANGIOENDOTHELIOMA, FORESTOMACH: SQUAMOUS CELL CARCINOMA, PAPILLOMA, Tumor Site: Type of Lesion: NASAL CAVITY: SQUAMOUS CELL CARCINOMA, SPLEEN: HEMANGIOENDOTHELIOMA, FORESTOMACH: SQUAMOUS CELL CARCINOMA, PAPILLOMA) is “active; positive”; the carcinogen call (Species: HAMSTER, Strain/Sex: SYRIAN/MALE, Route: GAVAGE, 40 MG/ML ((0.2 ML OF A SOLUTION IN ETHYL ACETATE/CORN OIL (1:2)) 1/WK FOR 25 WK (STUDY DURATION: LIFE SPAN), Tumor Site: Type of Lesion: LIVER: HEMANGIOSARCOMA, CHOLANGIOMA OR CARCINOMA, SPLEEN: HEMANGIOSARCOMA, FORESTOMACH: SQUAMOUS CELL CARCINOMA OR PAPIL, Tumor Site: Type of Lesion: LIVER: HEMANGIOSARCOMA, CHOLANGIOMA OR CARCINOMA, SPLEEN: HEMANGIOSARCOMA, FORESTOMACH: SQUAMOUS CELL CARCINOMA OR PAPIL) is “active; positive”; the carcinogen call (Species: HAMSTER, Strain/Sex: SYRIAN/MALE, Route: SUBCUTANEOUS, 7.75, 14.15, 28.3, 56.6 MG/KG IN 0.1 ML OLIVE OIL 1/WK FOR 52 WK (STUDY DURATION: LIFESPAN), 7.75, 14.15, 28.3, 56.6 MG/KG IN 0.1 ML OLIVE OIL 1/WK FOR 52 WK (STUDY DURATION: LIFESPAN), Tumor Site: Type of Lesion: NASAL CAVITY: SQUAMOUS CELL CARCINOMA, SPLEEN: HEMANGIOENDOTHELIOMA, FORESTOMACH: SQUAMOUS CELL CARCINOMA, PAPILLOMA, Tumor Site: Type of Lesion: NASAL CAVITY: SQUAMOUS CELL CARCINOMA, SPLEEN: HEMANGIOENDOTHELIOMA, FORESTOMACH: SQUAMOUS CELL CARCINOMA, PAPILLOMA) was “active; positive”.

Consider `Brc1c2ccccc2cc2c1ccc1ccccc12`, for which the carcinogen call (Species: MOUSE, Strain/Sex: B6C3F1/MALE, Route: INTRAPERITONEAL, 1600 NMOL (TOTAL DOSE) ADMINISTERED IN DOSES OF 1/7 WITHIN 24 HR OF BIRTH, 2/7 AT 8 DAYS OF AGE AND 4/7 AT 15 DAYS OF, Tumor Site: Type of Lesion: LIVER: ADENOMA, CARCINOMA) is “active; positive”.
